Experiments:
Axl [1] = target: T1, Axl (Homo sapiens (Human), UniProt P30530); experiment: Inhibition of the phosphorylation of the kinase Axl in cellulo (immunoblot, Y779); format: cell-based; settings: A549 cells, 2.5 μM compound 1 hour, 1 mM pervanadate 5 min
Method: FIG. 1: […] The A549 cells were preincubated for 1 hour with 2.5 μM of compounds targeting Axl. They were then stimulated for 5 min with 1 mM of pervanadate. The evaluation of the inhibition of the phosphorylation of the […] residue of the intracytoplasmic domain of Axl kinase is carried out by immunoblot using the antibody R&D Systems (AF2228) and measuring the intensity of the signals by densitometry (Image J) (P-Axl/Axl ratio). The A549 cells were preincubated for 1 hour with 2.5 μM of compound 1, 2, or 3. They were then stimulated for 5 min with 1 mM pervanadate, a compound known to activate the kinase Axl by phosphorylation. The inhibition of the phosphorylation of the […] residue of the intracytoplasmic domain of Axl is visualized by immunoblot using the antibody R&D Systems (AF2228).

Axl [2] = target: T1, Axl; experiment: Kinase panel Z'-LYTE/Adapta SelectScreen and IC50 determination; format: biochemical; settings: for Percentage inhibition AXL: 100 nM in 1% DMSO; for IC50: 10 concentrations between 100 nM and 0.00495 nM
Method: FIG. 2: […] The compounds are screened in DMSO at 1% final. The kinases were diluted in a concentrated concentration twice in kinase buffer. All the ATP solutions were diluted in a 4-fold concentrated working concentration (50 mM HEPES pH 7.5, 0.01% BRIJ-35, 10 mM MgCl2, 1 mM EGTA). […] The inhibitory activity of the compounds on a panel of kinases including, inter alia, AXL and FLT3 was evaluated by Thermo Fisher Scientific using Z′-LYTE® and Adapta® Select Screen technology. The fluorescence-based biochemical test uses coupled enzymes and is based on the difference in sensitivity of the phosphorylated and non-phosphorylated peptides to proteolytic cleavage. The peptide substrate is labeled with 2 fluorophores—one at each end—allowing fluorescence transfer (FRET). […] The Axl or FLT3 kinases were diluted at a two-fold concentration in kinase buffer. All the ATP solutions are diluted in a 4-fold working concentration (50 mM HEPES PH 7.5, 0.01% BRIJ-35, 10 mM MgCl2, 1 mM EGTA).

AURKB (Aurora B) = AURKB (Aurora B) (Homo sapiens (Human), UniProt Q96GD4); experiment: Kinase panel Z'-LYTE/Adapta SelectScreen; format: biochemical; settings: 100 nM in 1% DMSO
Sequence of AURKB (Aurora B) (Q96GD4 whole entry): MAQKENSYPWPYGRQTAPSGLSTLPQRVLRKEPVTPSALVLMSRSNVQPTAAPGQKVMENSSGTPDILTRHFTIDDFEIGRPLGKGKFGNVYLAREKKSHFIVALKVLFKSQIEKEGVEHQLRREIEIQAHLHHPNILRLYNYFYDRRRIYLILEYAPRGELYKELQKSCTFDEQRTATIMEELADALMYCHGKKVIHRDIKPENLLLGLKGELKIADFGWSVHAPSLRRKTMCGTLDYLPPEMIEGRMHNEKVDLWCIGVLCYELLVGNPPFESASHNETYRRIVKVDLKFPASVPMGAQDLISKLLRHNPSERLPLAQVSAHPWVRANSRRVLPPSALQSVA
Method: (§1) The inhibitory activity of the compounds on a panel of kinases including, inter alia, AXL and FLT3 was evaluated by Thermo Fisher Scientific using Z′-LYTE® and Adapta® Select Screen technology.
(§2) The fluorescence-based biochemical test uses coupled enzymes and is based on the difference in sensitivity of the phosphorylated and non-phosphorylated peptides to proteolytic cleavage. The peptide substrate is labeled with 2 fluorophores—one at each end—allowing fluorescence transfer (FRET).
(§3) Compounds 1, 2 and 3 are tested in wells at the final concentration of 100 nM in 1% DMSO.

FGFR1 = FGFR1 (Homo sapiens (Human), UniProt P11362); experiment: Kinase panel Z'-LYTE/Adapta SelectScreen; format: biochemical; settings: 100 nM in 1% DMSO
Sequence of FGFR1 (P11362 22-822): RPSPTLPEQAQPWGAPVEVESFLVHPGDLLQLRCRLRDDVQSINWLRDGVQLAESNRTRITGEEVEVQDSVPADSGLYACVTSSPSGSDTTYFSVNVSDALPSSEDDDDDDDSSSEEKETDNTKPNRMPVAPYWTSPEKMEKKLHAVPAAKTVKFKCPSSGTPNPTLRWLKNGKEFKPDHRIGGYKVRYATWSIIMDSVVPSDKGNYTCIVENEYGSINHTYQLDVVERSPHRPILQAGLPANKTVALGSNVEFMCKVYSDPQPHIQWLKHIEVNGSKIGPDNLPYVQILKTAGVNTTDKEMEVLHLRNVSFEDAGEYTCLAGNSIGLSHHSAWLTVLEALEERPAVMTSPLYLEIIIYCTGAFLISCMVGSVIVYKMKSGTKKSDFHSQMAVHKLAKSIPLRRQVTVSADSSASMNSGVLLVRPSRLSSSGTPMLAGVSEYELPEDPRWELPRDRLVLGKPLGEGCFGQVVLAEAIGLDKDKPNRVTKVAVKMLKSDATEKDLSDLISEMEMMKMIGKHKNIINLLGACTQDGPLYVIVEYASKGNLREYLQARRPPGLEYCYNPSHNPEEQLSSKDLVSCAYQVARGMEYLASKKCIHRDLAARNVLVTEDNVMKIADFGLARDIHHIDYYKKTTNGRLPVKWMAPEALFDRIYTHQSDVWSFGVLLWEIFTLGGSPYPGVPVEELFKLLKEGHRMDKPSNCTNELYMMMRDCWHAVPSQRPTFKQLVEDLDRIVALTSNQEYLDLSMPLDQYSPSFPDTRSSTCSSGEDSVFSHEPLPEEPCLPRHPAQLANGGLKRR
Method: as §1, §2, §3

IKBKB (IKK beta) = IKBKB (IKK beta) (Homo sapiens (Human), UniProt O14920); experiment: Kinase panel Z'-LYTE/Adapta SelectScreen; format: biochemical; settings: 100 nM in 1% DMSO
Sequence of IKBKB (IKK beta) (O14920 whole entry): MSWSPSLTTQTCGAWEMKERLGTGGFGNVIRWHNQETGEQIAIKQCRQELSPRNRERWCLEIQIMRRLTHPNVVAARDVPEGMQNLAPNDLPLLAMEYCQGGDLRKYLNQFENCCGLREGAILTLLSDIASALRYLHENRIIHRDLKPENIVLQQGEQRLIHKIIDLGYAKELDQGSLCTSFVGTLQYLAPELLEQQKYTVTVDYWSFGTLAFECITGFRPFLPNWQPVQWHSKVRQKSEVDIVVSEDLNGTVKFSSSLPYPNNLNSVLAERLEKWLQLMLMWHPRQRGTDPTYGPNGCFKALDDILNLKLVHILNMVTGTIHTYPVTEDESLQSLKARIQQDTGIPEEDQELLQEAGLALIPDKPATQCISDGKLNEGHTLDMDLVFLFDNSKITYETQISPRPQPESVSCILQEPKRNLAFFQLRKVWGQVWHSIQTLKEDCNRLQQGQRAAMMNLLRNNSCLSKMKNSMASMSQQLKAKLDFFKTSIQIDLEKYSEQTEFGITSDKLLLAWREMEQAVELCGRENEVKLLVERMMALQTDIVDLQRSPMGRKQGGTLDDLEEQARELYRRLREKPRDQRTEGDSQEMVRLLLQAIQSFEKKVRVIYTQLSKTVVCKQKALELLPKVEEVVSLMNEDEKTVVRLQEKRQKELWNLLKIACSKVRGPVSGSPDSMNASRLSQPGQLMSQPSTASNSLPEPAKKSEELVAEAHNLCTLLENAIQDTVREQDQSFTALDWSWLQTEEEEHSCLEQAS
Method: as §1, §2, §3

NUK1 (ARK5) = NUK1 (ARK5) (Homo sapiens (Human), UniProt O60285); experiment: Kinase panel Z'-LYTE/Adapta SelectScreen; format: biochemical; settings: 100 nM in 1% DMSO
Sequence of NUK1 (ARK5) (O60285 whole entry): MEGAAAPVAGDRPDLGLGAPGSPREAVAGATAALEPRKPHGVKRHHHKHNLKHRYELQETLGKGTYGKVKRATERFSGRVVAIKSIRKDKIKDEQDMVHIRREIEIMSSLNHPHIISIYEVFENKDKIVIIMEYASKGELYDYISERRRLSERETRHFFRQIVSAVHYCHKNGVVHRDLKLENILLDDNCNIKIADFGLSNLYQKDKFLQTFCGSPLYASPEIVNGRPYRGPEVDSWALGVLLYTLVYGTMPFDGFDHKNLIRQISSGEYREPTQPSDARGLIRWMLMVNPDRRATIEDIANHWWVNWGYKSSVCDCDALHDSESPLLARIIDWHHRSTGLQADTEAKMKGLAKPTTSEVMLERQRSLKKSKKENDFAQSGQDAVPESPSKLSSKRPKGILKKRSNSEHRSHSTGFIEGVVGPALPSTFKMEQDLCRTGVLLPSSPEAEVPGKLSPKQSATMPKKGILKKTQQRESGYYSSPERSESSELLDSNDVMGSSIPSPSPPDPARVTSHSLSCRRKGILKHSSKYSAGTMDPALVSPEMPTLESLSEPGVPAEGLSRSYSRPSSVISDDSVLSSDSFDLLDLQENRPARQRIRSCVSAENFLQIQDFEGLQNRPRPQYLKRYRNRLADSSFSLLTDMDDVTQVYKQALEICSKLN
Method: as §1, §2, §3

PDGFRB (PDGFR beta) = PDGFRB (PDGFR beta) (Homo sapiens (Human), UniProt P09619); experiment: Kinase panel Z'-LYTE/Adapta SelectScreen; format: biochemical; settings: 100 nM in 1% DMSO
Method: as §1, §2, §3

SRC = SRC (Homo sapiens (Human), UniProt P12931); experiment: Kinase panel Z'-LYTE/Adapta SelectScreen; format: biochemical; settings: 100 nM in 1% DMSO
Method: as §1, §2, §3

TEK (Tie2) = TEK (Tie2) (Homo sapiens (Human), UniProt Q02763); experiment: Kinase panel Z'-LYTE/Adapta SelectScreen; format: biochemical; settings: 100 nM in 1% DMSO
Sequence of TEK (Tie2) (Q02763 23-1124): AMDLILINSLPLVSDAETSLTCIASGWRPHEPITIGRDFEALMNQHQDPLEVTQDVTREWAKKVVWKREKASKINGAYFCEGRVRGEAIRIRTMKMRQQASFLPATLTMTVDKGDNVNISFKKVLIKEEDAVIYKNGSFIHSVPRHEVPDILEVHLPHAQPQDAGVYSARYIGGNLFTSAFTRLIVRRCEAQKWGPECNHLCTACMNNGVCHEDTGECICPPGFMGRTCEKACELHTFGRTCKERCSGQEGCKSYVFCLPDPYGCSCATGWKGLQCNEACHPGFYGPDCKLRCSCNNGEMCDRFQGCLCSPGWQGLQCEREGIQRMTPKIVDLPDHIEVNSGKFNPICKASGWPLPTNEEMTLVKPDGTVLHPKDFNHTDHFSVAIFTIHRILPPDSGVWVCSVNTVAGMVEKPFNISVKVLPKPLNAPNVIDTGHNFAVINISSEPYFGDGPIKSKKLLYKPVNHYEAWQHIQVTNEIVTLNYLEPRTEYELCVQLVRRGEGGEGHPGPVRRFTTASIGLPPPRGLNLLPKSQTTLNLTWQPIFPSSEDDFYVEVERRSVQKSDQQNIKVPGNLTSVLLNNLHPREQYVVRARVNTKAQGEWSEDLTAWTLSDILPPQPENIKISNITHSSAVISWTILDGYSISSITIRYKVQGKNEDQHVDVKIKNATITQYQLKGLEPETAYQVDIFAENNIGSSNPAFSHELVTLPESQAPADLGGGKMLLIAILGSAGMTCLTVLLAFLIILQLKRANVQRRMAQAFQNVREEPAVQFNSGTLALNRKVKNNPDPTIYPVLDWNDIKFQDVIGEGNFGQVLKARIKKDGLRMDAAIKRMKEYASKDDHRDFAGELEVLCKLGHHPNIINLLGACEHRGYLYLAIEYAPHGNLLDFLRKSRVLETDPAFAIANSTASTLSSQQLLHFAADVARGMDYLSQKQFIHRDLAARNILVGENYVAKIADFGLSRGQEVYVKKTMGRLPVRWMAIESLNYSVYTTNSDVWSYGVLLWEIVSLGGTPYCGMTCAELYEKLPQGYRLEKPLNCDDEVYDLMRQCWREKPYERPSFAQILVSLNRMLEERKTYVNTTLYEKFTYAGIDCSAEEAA
Method: as §1, §2, §3

YES1 = YES1 (Homo sapiens (Human), UniProt P07947); experiment: Kinase panel Z'-LYTE/Adapta SelectScreen; format: biochemical; settings: 100 nM in 1% DMSO
Sequence of YES1 (P07947 whole entry): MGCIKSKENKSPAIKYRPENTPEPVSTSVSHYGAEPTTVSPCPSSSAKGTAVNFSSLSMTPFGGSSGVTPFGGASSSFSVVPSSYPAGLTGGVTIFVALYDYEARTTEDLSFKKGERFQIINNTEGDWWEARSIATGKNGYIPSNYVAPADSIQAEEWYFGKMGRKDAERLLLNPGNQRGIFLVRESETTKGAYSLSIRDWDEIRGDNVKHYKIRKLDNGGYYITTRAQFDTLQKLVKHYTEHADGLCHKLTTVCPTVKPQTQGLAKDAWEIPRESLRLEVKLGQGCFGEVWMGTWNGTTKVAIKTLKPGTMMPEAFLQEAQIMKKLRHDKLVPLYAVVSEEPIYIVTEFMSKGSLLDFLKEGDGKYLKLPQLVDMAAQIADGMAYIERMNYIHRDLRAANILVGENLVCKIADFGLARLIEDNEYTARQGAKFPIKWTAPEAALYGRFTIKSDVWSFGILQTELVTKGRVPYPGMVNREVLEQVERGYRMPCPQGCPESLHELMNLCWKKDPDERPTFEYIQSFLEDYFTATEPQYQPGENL
Method: as §1, §2, §3

ZIKV BeH8 strain = experiment: Antiviral activity against the Zika virus in HeLa cells; format: cell-based; settings: for concentration at which infection of the Hela cells by the strain ZIKV BeH-8 is prevented: 24 h, qRT-PCR; for concentration at which infection of the Hela cells by the strain ZIKV BeH-8 is prevented / IC50: HeLa cells; for IC50: BeH-8 strain, MOI=0.1, 24 h; for active on infectious model ZIKV: summary table
[3] = system: SARS-COV-2 virus, BetaCoV/France/IDF0371/2020; experiment: Anti-SARS-COV-2 activity in VeroE6 cells; format: cell-based; settings: MOI=0.01, 24 hours, qRT-PCR; for infection of the VeroE6 cells by the SARS-COV-2 virus: 1.25 μM; for IC50: Vero E6 cells
Method: FIG. 7: Anti-SARS-COV-2 activity of compounds 1, 2, 3, 10 and 14 determined in the VeroE6 line. The cells were preincubated for 1 hour with compounds at a concentration of 1.25 μM, then infected with the viral strain BetaCoV/France/IDF0371/2020 (MOI=0.01). The cells were kept in culture for 24 hours in the presence of the compound. The residual viral replication is measured by quantification of the viral RNA in the cell culture by qRT-PCR. The control condition is obtained by incubation of cells in the presence of the dilution solvent DMSO (0). The values are averages of triplicates+standard deviation.
(§4) The inhibitory activity of the compounds of the invention on the infection by SARS-COV-2 was evaluated in vitro by infection of three relevant lines for the study of this pathogen: the green monkey line VeroE6 (immortalized kidney epithelium, ATCC #CRL-1586), the A549-ACE2 line produced by transfection of the ACE2 receptor in the A549 line (pulmonary epithelial carcinoma; ATCC #CCL-185), commercial primary bronchial epithelium cells (Mucilair Epithelix).
(§5) The infection tests are carried out by preincubating 4×10^4 VeroE6 or A549-ACE2 cells, cultivated in a 96-well plate, with the indicated concentrations of compounds for 1 hour. The cells are cultivated in a 5% CO2 atmosphere in a Dulbecco's modified Eagle's medium (DMEM) comprising 2% calf serum and 1% penicillin/streptomycin. The cells were then exposed to the SARS-COV-2 virus, BetaCoV/France/IDF0371/2020 (MOI=0.01) for 2 hours in the presence of the compounds before elimination of the innoculum, washing and culturing the cells in the presence of the compounds. 24 h after the viral challenge, the infection is quantified by amplification of the viral RNA by qRT-PCR using the Luna Universal One-Step RT-PCR kit. The values (DCT) are normalized by the GAPDH mRNA. The values represented are averages of triplicates+standard deviation. The control conditions were carried out by incubating the cells in the presence of DMSO, the solvent used for the solubilization of the compounds tested. The volumes of DMSO used under these conditions correspond to the volumes provided by the compounds under the test conditions.
IC50 compounds 1, 2 and 3 were determined on the VeroE6 and A549-ACE2 cells using the software Graphpad Prism.

SARS-COV-2 = experiment: Summary of activity on the SARS-COV-2 infectious models; format: cell-based; settings: summary table
Method: as §4, §5

T1 sequence (P30530 26-894): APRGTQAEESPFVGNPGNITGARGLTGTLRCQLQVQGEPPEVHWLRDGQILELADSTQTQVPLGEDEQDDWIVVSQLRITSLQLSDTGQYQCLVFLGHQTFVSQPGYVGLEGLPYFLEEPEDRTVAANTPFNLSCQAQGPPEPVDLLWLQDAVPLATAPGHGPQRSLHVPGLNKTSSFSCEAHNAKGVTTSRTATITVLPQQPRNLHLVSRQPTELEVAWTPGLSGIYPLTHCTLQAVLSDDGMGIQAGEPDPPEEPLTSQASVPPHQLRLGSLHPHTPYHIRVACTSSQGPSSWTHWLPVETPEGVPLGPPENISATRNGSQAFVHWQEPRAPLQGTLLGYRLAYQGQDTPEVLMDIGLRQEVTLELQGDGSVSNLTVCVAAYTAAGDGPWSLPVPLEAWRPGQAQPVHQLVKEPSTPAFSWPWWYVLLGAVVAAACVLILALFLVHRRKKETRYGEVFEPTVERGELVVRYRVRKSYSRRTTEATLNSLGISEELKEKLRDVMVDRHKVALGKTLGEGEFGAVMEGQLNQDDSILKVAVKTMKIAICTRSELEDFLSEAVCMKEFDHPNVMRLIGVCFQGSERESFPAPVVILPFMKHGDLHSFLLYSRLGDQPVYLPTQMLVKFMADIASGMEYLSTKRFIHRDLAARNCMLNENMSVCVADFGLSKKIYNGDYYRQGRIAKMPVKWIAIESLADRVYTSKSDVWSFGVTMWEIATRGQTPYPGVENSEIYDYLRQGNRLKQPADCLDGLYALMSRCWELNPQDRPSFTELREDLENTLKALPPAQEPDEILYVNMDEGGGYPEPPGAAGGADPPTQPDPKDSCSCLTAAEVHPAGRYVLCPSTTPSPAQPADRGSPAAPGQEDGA

SMILES: CN1CCN(Cc2cccc(-c3cnc4[nH]cc(-c5cc(CNCCc6ccc(O)cc6)ccc5F)c4c3)c2)CC1 [Compound 1]
- activation (phosphorylation) of the Y779 residue of AxL compared to the control (DMSO) (Axl [1]): much lower or even zero activation
- Percentage inhibition AXL (Axl [2]): 95%
- IC50 (Axl [2]): 5.36 nM
- Percentage inhibition AURKB (Aurora B) (AURKB (Aurora B)): 41%
- Percentage inhibition FGFR1 (FGFR1): 43%
- Percentage inhibition IKBKB (IKK beta) (IKBKB (IKK beta)): 33%
- Percentage inhibition NUK1 (ARK5) (NUK1 (ARK5)): 74%
- Percentage inhibition PDGFRB (PDGFR beta) (PDGFRB (PDGFR beta)): 37%
- Percentage inhibition SRC (SRC): 19%
- Percentage inhibition TEK (Tie2) (TEK (Tie2)): 13%
- Percentage inhibition YES1 (YES1): 18%
- concentration at which infection of the Hela cells by the strain ZIKV BeH-8 is prevented (ZIKV BeH8 strain): greater than or equal to 150 nM
- IC50 (ZIKV BeH8 strain): 198 nM
- active on infectious model ZIKV (ZIKV BeH8 strain): ACTIVE
- infection of the VeroE6 cells by the SARS-COV-2 virus [3]: prevent the infection
- IC50 [3]: 77 nM
- active on infectious model SARS-COV-2 (SARS-COV-2): ACTIVE

SMILES: CN1CCN(Cc2cccc(-c3cnc4[nH]cc(-c5cc(CNCc6ccccc6)ccc5F)c4c3)c2)CC1 [Compound 2]
- activation (phosphorylation) of the Y779 residue of AxL compared to the control (DMSO) (Axl [1]): much lower or even zero activation
- Percentage inhibition AXL (Axl [2]): 95%
- IC50 (Axl [2]): 2.36 nM
- Percentage inhibition AURKB (Aurora B) (AURKB (Aurora B)): 20%
- Percentage inhibition FGFR1 (FGFR1): 20%
- Percentage inhibition IKBKB (IKK beta) (IKBKB (IKK beta)): 28%
- Percentage inhibition NUK1 (ARK5) (NUK1 (ARK5)): 16%
- Percentage inhibition PDGFRB (PDGFR beta) (PDGFRB (PDGFR beta)): 30%
- Percentage inhibition SRC (SRC): 16%
- Percentage inhibition TEK (Tie2) (TEK (Tie2)): 88%
- Percentage inhibition YES1 (YES1): 15%
- concentration at which infection of the Hela cells by the strain ZIKV BeH-8 is prevented (ZIKV BeH8 strain): greater than or equal to 150 nM
- IC50 (ZIKV BeH8 strain): 25 nM
- active on infectious model ZIKV (ZIKV BeH8 strain): ACTIVE
- infection of the VeroE6 cells by the SARS-COV-2 virus [3]: prevent the infection
- IC50 [3]: 289 nM
- active on infectious model SARS-COV-2 (SARS-COV-2): ACTIVE

SMILES: CN1CCN(Cc2cccc(-c3cnc4[nH]cc(-c5cc(NC(=O)Nc6ccccc6)ccc5F)c4c3)c2)CC1 [Compound 3]
- activation (phosphorylation) of the Y779 residue of AxL compared to the control (DMSO) (Axl [1]): much lower or even zero activation
- Percentage inhibition AXL (Axl [2]): 94%
- IC50 (Axl [2]): 6.3 nM
- selectivity with respect to Axl relative to FLT3 (Axl [2]; from IC50 Axl and IC50 FLT3): shows a selectivity with respect to Axl relative to FLT3
- Percentage inhibition AURKB (Aurora B) (AURKB (Aurora B)): 38%
- Percentage inhibition FGFR1 (FGFR1): 27%
- Percentage inhibition IKBKB (IKK beta) (IKBKB (IKK beta)): 13%
- Percentage inhibition NUK1 (ARK5) (NUK1 (ARK5)): 14%
- Percentage inhibition PDGFRB (PDGFR beta) (PDGFRB (PDGFR beta)): 19%
- Percentage inhibition SRC (SRC): 10%
- Percentage inhibition TEK (Tie2) (TEK (Tie2)): 27%
- Percentage inhibition YES1 (YES1): 11%
- concentration at which infection of the Hela cells by the strain ZIKV BeH-8 is prevented (ZIKV BeH8 strain): greater than or equal to 150 nM
- infection of the VeroE6 cells by the SARS-COV-2 virus [3]: prevent the infection
- active on infectious model SARS-COV-2 (SARS-COV-2): ACTIVE

— US20240293400A1, “NOVEL AZAINDOLE DERIVATIVES AS ANTIVIRAL AGENTS” (Centre National de la Recherche Scientifique, priority 2021, published 2024)
